Data from patent US5776734A, “DNA encoding the β subunit of a mammalian maxi-K potassium channel” (Merck & Co., Inc., priority 1996, dated 1998).

Tests used:
[1] = target: T1, purified maxi-K channel from bovine tracheal smooth muscle (Bos taurus, UniProt Q28067+Q28204); assay: [125I]ChTX binding to purified maxi-K channel (ChTX receptor); conditions: for inhibition of 125I-ChTX binding to the purified maxi-K channel: in a manner similar to native tissue channels
T1 construct: Purified sarcolemmal membrane vesicles derived from bovine tracheal smooth muscle; from tissue; host or cells: bovine tracheal smooth muscle sarcolemmal membranes
Description: Purified sarcolemmal membrane vesicles derived from bovine tracheal smooth muscle were prepared as previously described (Slaughter, R. S., Shevell, J. L., Felix, J. P., Garcia, M. L., and Kaczorowski, G. J., Biochemistry 28, 3995-4002 (1989)). The interaction of [^125 I]ChTX (New England Nuclear Corporation) with maxi-K channels in bovine tracheal sarcolemmal membrane vesicles was monitored as outlined previously (Vazquez, J., Feigenbaum, P., Katz, G., King, V. F., Reuben, J. P., Roy-Contancin, L., Slaughter, R. S., Kaczorowski, G. J., and Garcia, M. L., J. Biol. Chem. 264, 20902-20909 (1989)). Binding of radiolabeled toxin to solubilized channels was measured by incubating aliquots of solubilized material in 0.05% digitonin with [^125 I]ChTX as described (Garcia-Calvo, M., Vazquez, J., Smith, M., Kaczorowski, G. J., and Garcia, M. L. Biochemistry 30, 11157-11164 (1991)). At the end of the incubation period, protein was precipitated by addition of 10% (w/v) PEG (Mw~8000) in the presence of […] and the precipitate was immediately collected onto GF/C glass fiber filters (Whatman) that had been presoaked in 0.5% polyethylenimine. Nonspecific binding was determined in the presence of 10 nM ChTX (Peninsula Laboratories). For each experiment, triplicate assays were routinely performed, and the data were averaged. The standard error of the mean of these replicates was typically less than 3%.

[2] = target: T2, 31,000 component (β subunit) of purified ChTX receptor (Bos taurus, UniProt Q28067+Q28204); assay: Covalent crosslinking of [125I]ChTX to purified receptor with disuccinimidyl suberate, SDS-PAGE; format: binding, bovine; conditions: in the presence of disuccinimidyl suberate
T2 construct: Purified sarcolemmal membrane vesicles derived from bovine tracheal smooth muscle; from tissue; host or cells: bovine tracheal smooth muscle sarcolemmal membranes
Description: Fractions from the last sucrose density gradient centrifugation containing 31-158 ng of protein were dialyzed against 10 mM Na-borate, pH 9.0, 0.05% Triton X-100 and then reacted with 3.5 mCi of [^125 I]Bolton-Hunter reagent (2200 Ci/mmol; New England Nuclear Corporation) for 15 min on ice. The reaction was quenched by addition of Tris-HCl, pH 7.4 to a final concentration of 100 mM. Covalent incorporation of [^125 I]ChTX into the purified receptor was accomplished with the bifunctional reagent, disuccinimidyl suberate as previously described for crosslinking ChTX to its receptor in membranes (Garcia-Calvo, M., Vazquez, J., Smith, M., Kaczorowski, G. J., and Garcia, M. L. (1991) Biochemistry 30, 11157-11164). Briefly, the purified receptor preparation was incubated with 130 pM [^125 I]ChTX in 10 mM NaCl, 10 mM Taps-NaOH, pH 9.0, 0.1% digitonin, in the absence or presence of unlabeled ChTX, for two hours at room temperature. The solution was then adjusted to 0.2M NaCl and disuccinimidyl suberate was added to a final concentration of 0.18 mM. After incubation at room temperature for 1 min, the reaction was stopped by addition of Tris-HCl, pH 7.4 to a final concentration of 200 mM. Samples were dialyzed against 10 mM Tris-HCl, pH 7.4, 0.05% digitonin, concentrated 10 fold, and subjected to SDS-PAGE. […]

[3] = system: maxi-K channel α subunit (mslo19) expressed in Xenopus oocytes; assay: Two-electrode voltage clamp of Xenopus oocytes injected with α subunit cRNA alone; format: cell-based, mouse; conditions: for block of outward potassium currents: no concentration given; for block of outward currents in whole-oocyte voltage clamp: toxin at 10 to 30 nM
Excerpt: (§1) cDNAs encoding both the α and β subunits were used as templates for the production of cRNA. The α subunit cDNA was obtained from Leo Pallanck (Univ. of Wisconsin) and consisted of a full-length mouse brain cDNA (mslo19; GenBank Accession #U09383) in an RNA transcription vector, pGH. […] We therefore used standard techniques to modify the mslo19 cDNA, specifically by deleting the 5' non-coding sequence (bases 1 to 940), and replacing that sequence with a consensus eukaryotic translation initiation sequence: 5'-GCCGCCACC-3'. […] A fragment of the β subunit cDNA, including the entire open reading frame, was subcloned into a pGEM (Promega, inc.) vector for cRNA transcription. The cRNAs encoding both the α and β subunits were transcribed using the appropriate RNA polymerase as determined by the transcription vector (T7 for α, and SP6 for β) and capped in vitro using a kit (mCAP; Stratagene, inc), purified by size-exclusion chromatography using sepahadex G-50 spin columns (Bio-Rad, inc.), and analyzed for purity and length by agarose/formaldehyde gel electrophoresis according to established procedures. Following ethanol precipitation, cRNAs were resuspended in sterile, DEPC-treated water at a concentration of 0.1 to 1 μg/μl, and stored in 2 μl aliquots at -8° C.
Injection of mRNA or cRNA into Xenopus oocytes was done by a modification of established protocols (A. Coleman, Transcription and Translation: A Practical Approach. B. D. Hanes, S. J. Higgins, Eds., 1984); Y. Masu, et al., Nature 329, 836-838 (1987)). Oocytes were surgically removed from 0.17% tricaine anesthetized Xenopus laevis (Xenopus One). The excised ovarian lobes were teased apart with jeweler's forceps and then placed into OR-2 (82.5 mM NaCl, 2 mM KCl, 1 mM MgCl2, 5 mM HEPES, pH 7.4) containing 2 mg/ml collagenase β (Boehringer Mannhiem) for 2 hours at room temperature with a change of the buffer at 1 hour. Isolated oocytes were repeatedly washed in OR-2 until the supernatant remained clear. Stage 5 and 6 oocytes were selected and cultured overnight in supplemented OR-2 (OR-2 containing 1.8 mM CaCl2 and 0.5 mg/ml gentamycin. Oocytes were injected with 46 nl of RNA at a concentration of 0.1 to 1.0 mg/ml in H2 O. RNA was injected using a Nanoject automatic oocyte injector (Drummond Scientific) and injection needles were pulled from 3.5" Drummond capillaries using a Micropipette puller (Kopf Instruments).
Currents were recorded from Xenopus oocytes using two-electrode voltage-clamp methods to record currents from the entire oocyte and patch-clamp methods to record current from small patches of membrane excised from the oocytes. Recordings were done at room temperature and were performed 1 to 30 days after injection. […]

[4] = system: maxi-K channel α and β subunits coexpressed in Xenopus oocytes; assay: Two-electrode voltage clamp of Xenopus oocytes injected with α and β subunit cRNAs; format: cell-based, mouse α subunit, bovine β subunit; conditions: oocytes injected with both α and β subunit cRNAs
Excerpt: as §1, with “Following ethanol precipitation, cRNAs were resuspended in sterile, DEPC-treated water at a concentration of 0.1 to 1 μg/μl, and stored in 2 μl aliquots at -8° C.” left out
(§2) Currents were recorded from Xenopus oocytes using two-electrode voltage-clamp methods to record currents from the entire oocyte and patch-clamp methods to record current from small patches of membrane excised from the oocytes. […]

[5] = target: maxi-K channel α subunit (mslo19) expressed in Xenopus oocytes (Mus musculus, UniProt Q08460); assay: Patch clamp of excised inside-out patches from oocytes injected with α subunit cRNA alone; format: cell-based; conditions: 100-500 nM
Excerpt: as §1, with “Following ethanol precipitation, cRNAs were resuspended in sterile, DEPC-treated water at a concentration of 0.1 to 1 μg/μl, and stored in 2 μl aliquots at -8° C.” left out
as §2

[6] = target: maxi-K channel α and β subunits coexpressed in Xenopus oocytes (UniProt Q08460+Q28067); assay: Patch clamp of excised inside-out patches from oocytes injected with α and β subunit cRNAs; format: cell-based, mouse α subunit, bovine β subunit; conditions: both subunits; 100-300 nM applied to the intracellular face of the channel
Excerpt: as §1, with “Following ethanol precipitation, cRNAs were resuspended in sterile, DEPC-treated water at a concentration of 0.1 to 1 μg/μl, and stored in 2 μl aliquots at -8° C.” left out
as §2

T1 sequence (Q28204 whole entry): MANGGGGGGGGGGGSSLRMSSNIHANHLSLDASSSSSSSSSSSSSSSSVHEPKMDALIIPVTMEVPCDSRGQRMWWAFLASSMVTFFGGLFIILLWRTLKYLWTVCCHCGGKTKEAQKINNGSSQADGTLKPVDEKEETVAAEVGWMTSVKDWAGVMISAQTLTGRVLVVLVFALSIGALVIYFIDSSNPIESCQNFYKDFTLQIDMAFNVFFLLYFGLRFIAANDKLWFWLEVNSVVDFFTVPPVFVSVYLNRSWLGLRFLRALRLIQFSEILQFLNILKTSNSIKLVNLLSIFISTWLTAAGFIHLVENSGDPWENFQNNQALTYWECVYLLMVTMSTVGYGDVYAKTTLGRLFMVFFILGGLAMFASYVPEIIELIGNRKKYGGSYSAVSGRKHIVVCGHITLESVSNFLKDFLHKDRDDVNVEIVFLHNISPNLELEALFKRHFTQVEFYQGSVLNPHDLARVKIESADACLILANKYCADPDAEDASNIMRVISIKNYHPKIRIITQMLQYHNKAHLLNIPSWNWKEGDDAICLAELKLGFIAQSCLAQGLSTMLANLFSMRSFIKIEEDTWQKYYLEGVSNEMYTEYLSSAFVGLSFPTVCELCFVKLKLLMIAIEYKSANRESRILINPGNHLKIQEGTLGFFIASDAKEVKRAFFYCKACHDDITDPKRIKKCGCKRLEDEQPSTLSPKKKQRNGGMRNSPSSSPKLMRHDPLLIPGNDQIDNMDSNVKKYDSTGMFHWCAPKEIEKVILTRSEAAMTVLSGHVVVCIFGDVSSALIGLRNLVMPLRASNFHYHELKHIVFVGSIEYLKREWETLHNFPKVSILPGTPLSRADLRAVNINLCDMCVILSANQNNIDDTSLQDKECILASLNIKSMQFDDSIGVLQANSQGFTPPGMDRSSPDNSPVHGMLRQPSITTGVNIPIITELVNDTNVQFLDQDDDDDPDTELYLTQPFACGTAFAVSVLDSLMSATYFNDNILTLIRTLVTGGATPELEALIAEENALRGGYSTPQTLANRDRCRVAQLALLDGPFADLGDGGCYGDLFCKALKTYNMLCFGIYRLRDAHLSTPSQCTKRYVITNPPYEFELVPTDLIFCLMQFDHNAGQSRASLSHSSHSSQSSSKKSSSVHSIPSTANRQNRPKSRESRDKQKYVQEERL
T1 sequence (Q28067 2-191): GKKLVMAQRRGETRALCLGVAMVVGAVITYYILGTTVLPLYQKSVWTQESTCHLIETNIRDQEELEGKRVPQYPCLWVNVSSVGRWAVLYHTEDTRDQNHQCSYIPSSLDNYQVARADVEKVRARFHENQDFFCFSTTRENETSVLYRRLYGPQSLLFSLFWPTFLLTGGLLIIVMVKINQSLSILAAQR
Sequence of maxi-K channel α subunit (mslo19) expressed in Xenopus oocytes (Q08460 66-642 limits assumed): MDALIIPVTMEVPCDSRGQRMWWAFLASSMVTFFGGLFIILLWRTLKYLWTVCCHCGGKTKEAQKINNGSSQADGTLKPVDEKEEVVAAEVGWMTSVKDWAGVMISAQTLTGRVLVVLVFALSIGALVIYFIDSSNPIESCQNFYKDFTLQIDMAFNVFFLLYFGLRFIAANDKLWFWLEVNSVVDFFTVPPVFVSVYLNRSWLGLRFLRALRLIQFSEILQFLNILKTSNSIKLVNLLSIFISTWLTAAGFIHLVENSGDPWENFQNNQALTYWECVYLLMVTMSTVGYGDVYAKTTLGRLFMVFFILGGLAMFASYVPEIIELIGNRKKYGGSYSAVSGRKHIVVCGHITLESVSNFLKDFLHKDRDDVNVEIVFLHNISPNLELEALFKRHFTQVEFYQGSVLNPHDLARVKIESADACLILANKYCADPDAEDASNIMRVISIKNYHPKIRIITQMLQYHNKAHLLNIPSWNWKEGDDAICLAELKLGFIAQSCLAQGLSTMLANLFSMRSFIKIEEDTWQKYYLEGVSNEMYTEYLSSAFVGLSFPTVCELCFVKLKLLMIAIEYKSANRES
T2 sequence (Q28204 whole entry): as the sequence (Q28204 whole entry) above
T2 sequence (Q28067 2-191): as the sequence (Q28067 2-191) above
Sequence of maxi-K channel α and β subunits coexpressed in Xenopus oocytes (Q08460 66-642 limits assumed): as the sequence (Q08460 66-642 limits assumed) above
Sequence of maxi-K channel α and β subunits coexpressed in Xenopus oocytes (as listed by the source): as the sequence (Q28067 2-191) above
Sequence of maxi-K channel α and β subunits coexpressed in Xenopus oocytes (UniProt Q08460+Q28067) (Q08460 whole entry): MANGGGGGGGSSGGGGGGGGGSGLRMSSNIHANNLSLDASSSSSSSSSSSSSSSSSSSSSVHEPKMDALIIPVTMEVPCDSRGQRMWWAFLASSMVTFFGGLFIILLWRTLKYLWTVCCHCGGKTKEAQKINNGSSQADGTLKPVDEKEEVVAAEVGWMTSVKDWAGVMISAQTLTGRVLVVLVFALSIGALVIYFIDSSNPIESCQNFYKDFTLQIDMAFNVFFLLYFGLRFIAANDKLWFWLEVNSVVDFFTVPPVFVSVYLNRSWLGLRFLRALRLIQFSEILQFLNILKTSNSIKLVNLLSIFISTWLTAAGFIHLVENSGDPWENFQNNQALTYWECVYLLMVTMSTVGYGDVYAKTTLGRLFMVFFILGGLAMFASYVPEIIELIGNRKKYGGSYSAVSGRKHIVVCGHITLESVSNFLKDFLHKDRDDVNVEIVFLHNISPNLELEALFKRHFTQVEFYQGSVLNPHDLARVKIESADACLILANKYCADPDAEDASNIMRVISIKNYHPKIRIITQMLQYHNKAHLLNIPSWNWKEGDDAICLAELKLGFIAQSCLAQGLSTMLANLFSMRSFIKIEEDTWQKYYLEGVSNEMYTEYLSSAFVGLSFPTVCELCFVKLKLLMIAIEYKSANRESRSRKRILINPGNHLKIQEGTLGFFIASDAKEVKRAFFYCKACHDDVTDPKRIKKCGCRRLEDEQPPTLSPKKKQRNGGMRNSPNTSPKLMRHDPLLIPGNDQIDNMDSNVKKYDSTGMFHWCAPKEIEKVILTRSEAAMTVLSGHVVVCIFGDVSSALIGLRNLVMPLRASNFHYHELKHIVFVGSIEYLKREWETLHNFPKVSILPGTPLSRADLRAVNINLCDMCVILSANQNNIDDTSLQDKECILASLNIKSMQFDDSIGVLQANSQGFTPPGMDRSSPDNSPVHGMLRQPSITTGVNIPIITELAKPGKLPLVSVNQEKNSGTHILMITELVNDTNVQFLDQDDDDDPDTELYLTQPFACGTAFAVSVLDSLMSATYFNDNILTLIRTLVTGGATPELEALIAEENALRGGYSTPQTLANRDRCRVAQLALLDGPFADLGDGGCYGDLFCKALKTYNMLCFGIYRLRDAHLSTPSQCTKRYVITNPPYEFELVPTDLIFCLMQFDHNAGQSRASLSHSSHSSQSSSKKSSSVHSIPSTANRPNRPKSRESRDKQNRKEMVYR
Sequence of maxi-K channel α and β subunits coexpressed in Xenopus oocytes (UniProt Q08460+Q28067) (Q28067 whole entry): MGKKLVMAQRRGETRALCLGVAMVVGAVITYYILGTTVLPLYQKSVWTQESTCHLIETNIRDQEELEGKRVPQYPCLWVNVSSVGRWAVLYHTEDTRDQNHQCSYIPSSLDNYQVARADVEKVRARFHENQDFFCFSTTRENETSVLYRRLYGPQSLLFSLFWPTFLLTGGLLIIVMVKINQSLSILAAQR
Sequence of maxi-K channel α subunit (mslo19) expressed in Xenopus oocytes (Mus musculus, UniProt Q08460) (Q08460 whole entry): as the sequence (Q08460 whole entry) above

`[Ba]` [barium] was tested, and the “inhibition of 125I-ChTX binding to the purified maxi-K channel” value (from here on “inhibition of 125I-ChTX binding”) [1] was “inhibited”.
For `[Cs]` [cesium], the “inhibition of 125I-ChTX binding” value [1] was “inhibited”.
`[K+]` [potassium] was tested, and the “inhibition of 125I-ChTX binding” value [1] was “inhibited” and the “effect on [125I]ChTX labeling of the 31,000 component” value [2] was “abolished”.
“^125 I-ChTX: radiolabeled toxin (New England Nuclear Corporation)” was tested, and the “binding affinity for the purified channel compared with the native maxi-K channel” value ([1]; purified channel from bovine tracheal smooth muscle) was “similar”.
For charybdotoxin [ChTX], the “inhibition of 125I-ChTX binding” value [1] was “inhibited”, the “block of outward potassium currents” value [3] was “blocked” and the “block of outward currents in whole-oocyte voltage clamp” value [3] was “blocked”. For the same molecule, the “block of outward potassium currents” value [4] was “blocked”.
With dehydrosoyasaponin I [DHS-I] the “effect on channel open probability / patch currents” value [5] was “not increased” and the channel activation [6] was “fully activated”.
“iberiotoxin (QFTDVDCSVSKECWSVCKDLFGVDRGKCMGKKCRCYQ) [IbTX]” was tested, and the “inhibition of 125I-ChTX binding” value [1] was “inhibited”, the “effect on [125I]ChTX labeling of the 31,000 component” value [2] was “abolished” and the “block of outward potassium currents” value [3] was “blocked”. For the same molecule, the “block of outward currents in whole-oocyte voltage clamp” value [3] was “blocked” and the “block of outward potassium currents” value [4] was “blocked”.
In the case of limbatustoxin [LbTX], the “inhibition of 125I-ChTX binding” value [1] is reported as “inhibited”.
